This is an account of results in US20160106711A1, “3-3-Di-Substituted-Oxindoles as Inhibitors of Translation Initiation” (President and Fellows of Harvard College, priority 2012, published 2016).

In test [1] the test system is eIF2•GTP•Met-tRNAi ternary complex. In words: Ternary complex assay (ATF-4 assay), dual luciferase firefly/renilla ratio. As to conditions: for maximal fold induction at 40 µM: read-out: ATF-4 Xmax @ 40 μM. Type of test: cell-based, mouse. An outline of the steps:
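Stable KLN cancer cells expressing tTA carry a bidirectional reporter in which firefly luciferase sits behind the ATF-4 5′UTR and renilla luciferase behind a plasmid-derived 5′UTR only. Lysates were read by Dual-Glo luciferase assay, and the output is the firefly/renilla signal ratio.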

Test [2] deals with CHOP mRNA. In words: Real time PCR of CHOP mRNA expression, KLN cells. Format: cell-based, mouse. As to the method:
(§1) In order to validate the compounds described herein as modifiers of the abundance of the eIF2•GTP•Met-tRNAi ternary complex, the effects of the compounds on endogenous cellular markers of the ternary complex were determined. For example, reducing amount of the ternary complex increases translation of ATF-4, which results in elevated expression of CHOP mRNA and protein. Therefore, expression of endogenous CHOP mRNA and CHOP protein in KLN-tTA/pBISA-DL^(ATF-4) cells were utilized as secondary assays to validate the compounds as modifiers of the eIF2•GTP•Met-tRNAi ternary complex.
(§2) Total RNA was extracted with TaqMan Gene Expression Cells-to-Ct™ Kit (Applied Biosystems, Branchburg, N.J.) and DNAse I treated according to manufacturer's recommendations. 1-Step Real-time PCR was performed on a Bio-Rad iCycler IQ5 system by using B-R 1-Step SYBR Green qRT-PCR Kit (Quanta BioSciences, Gaithersburg, Md.) according to manufacturer's specifications. The thermal cycler conditions were as follows: 10 minutes at 50° C., hold for 5 minutes at 95° C., followed by 2-step PCR for 45 cycles of 95° C. for 15 seconds followed by 60° C. for 30 seconds. All PCRs were performed in triplicate in at least two independent PCR runs. Mean values of these repeated measurements were used for calculation. To calibrate the results, all the transcript quantities were normalized to 18S rRNA (18S ribosomal RNA-like mRNA in mouse). The following primers were used in real-time PCR reactions.
The effects of these compounds on the ternary complex assay and the expression of CHOP mRNA was assayed in adherent mouse (KLN) and human solid tumors cells (CRL-2351 and CRL-2813).
Background: Real-time PCR tracks product formation cycle by cycle.

Another test has as its system CRL-2351. In words: Cell growth assay (sulforhodamine B), CRL-2351 cells. Type of test: cell-based, human. As to conditions: 5 days, SRB. The essentials:
(§3)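 Cells were exposed for 5 days to 0.54-6 µM compound, then TCA-fixed and stained with sulforhodamine B, read at 490 nm. Growth was expressed as %T/C with time-zero correction. IC50 is the concentration giving 50% growth inhibition.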

A further test concerns CRL-2813. In words: Cell growth assay (sulforhodamine B), CRL-2813 cells. Format: cell-based, human. As to conditions: 5 days, SRB. The essentials: as §3
The next test concerns KLN. In words: Cell growth assay (sulforhodamine B), KLN cells. Conditions: 5 days, SRB. Type of test: cell-based, mouse.
The subject of test [3] is CHOP mRNA. In words: Real time PCR of CHOP mRNA expression, CRL-2351 cells. Format: cell-based, human. Here is the method:
as §1
as §2, with “Mean values of these repeated measurements were used for calculation.” left out, “The following primers were used in real-time PCR reactions.” left out

The mark [4] stands for this setting: Mus musculus, read-out: ATF-4 Xmax.

Usually fold induction stands for the ratio of treated to control signal. A higher fold induction goes with a strong induction. The IC50 is the concentration at which inhibition is half-maximal. Consider `COCCOc1ccc(C(C)(C)C)cc1C1(c2cc(C(C)(C)C)ccc2O)C(=O)Nc2ccccc21` (centres unmarked) [HY081], for which the maximal fold induction at 40 µM in test [1] (Mus musculus, at 40 uM) turned out to be 1.21 ± 0.16. Besides, the fold induction at 40 µM in the test with CHOP mRNA [2] (Mus musculus) came out at 1.78. For the same molecule, the IC50 in the test on CRL-2351 (Homo sapiens, 120 h) is 3.9 ± 2 µM; in the test with CRL-2813 (Homo sapiens, CRL2813, 120 h), 0.9 ± 0.1 µM; with KLN (Mus musculus, 120 h), above 20 µM.
Consider `CC(C)(C)c1ccc(OCCN2CCCC2)c(C2(c3cc(C(C)(C)C)ccc3OCCN3CCCC3)C(=O)Nc3ccccc32)c1` [HY191], for which the maximal fold induction at 5 µM in test [1] (Mus musculus, cell prints 5 (uM), read-out: ATF-4 Xmax) is 13.9 ± 0.97. The fold induction at 5 µM in the test on CHOP mRNA [2] (Mus musculus, at 5 uM) is 8.5. The IC50 with CRL-2351 (Homo sapiens, 120 h) was determined as 0.65 ± 0.1 µM; in the test on CRL-2813 (Homo sapiens, CRL2813, 120 h) it was 0.8 ± 0.1 µM; in the test with KLN (Mus musculus, 120 h), 3.5 ± 1.2 µM.
`CCN(CCO)CCOc1ccc(C(C)(C)C)cc1C1(c2cc(C(C)(C)C)ccc2OCCN2CCOCC2)C(=O)N(CCN(C)C)c2ccccc21` (centres unmarked) [HY306]: in test [1] (at 40 uM), the “ATF-4 Xmax @ 40 μM” value turned out to be 19.2 ± 11.2 at 40 uM. Also, in the test on CHOP mRNA [2] (at 20 uM), the “CHOP PCR (μM) KLN” value came out at 8.11 at. The IC50 in the test on CRL-2351 worked out at 2.3 ± 0.6 µM; in the test with CRL-2813, 2.7 ± 0.8 µM; with KLN, 2.3 ± 1.6 µM.
Regarding `O=C1Nc2ccccc2C1(c1cc(Cl)ccc1O)c1cc(Cl)ccc1O` [HY033, 3,3-Bis(5-Chloro-2-Hydroxyphenyl)Indolin-2-One], the maximal fold induction at 40 µM in test [1] (Mus musculus, at 40 uM) was determined as 6.14 ± 0.63. The IC50 turned out to be 6.8 ± 0.8 µM in the test on CRL-2351 (Homo sapiens, 120 h); 4.2 ± 0.2 µM with CRL-2813 (Homo sapiens, CRL2813, 120 h); 15.2 ± 1.6 µM with KLN (Mus musculus, 120 h). Also, the “CHOP PCR (μM) 2351” value is given as 7.8/20 uM in the test with CHOP mRNA [3] (CRL-2351, 20 uM) and 18.5/40 uM with CHOP mRNA [3] (CRL-2351, 40 uM).
In the case of `COCCOc1ccc(C(C)(C)C)cc1C1(c2cc(C(C)(C)C)ccc2OCCOC)C(=O)Nc2ccccc21` [HY181], the maximal fold induction at 80 µM in test [1] (setting [4]) was determined as 1.58 ± 0.07. Besides, the fold induction at 80 µM in the test with CHOP mRNA [2] (Mus musculus) amounted to 1.1. Moreover, the IC50 was 3.9 ± 2 µM in the test on CRL-2351 (Homo sapiens, 120 h); 0.9 ± 0.1 µM with CRL-2813 (Homo sapiens, CRL2813, 120 h); above 20 µM with KLN (Mus musculus, 120 h).
Take `CCN(CC)CCOc1ccc(C(C)(C)C)cc1C1(c2cc(C(C)(C)C)ccc2O)C(=O)Nc2ccccc21` (centres unmarked) [HY096]: the maximal fold induction at 20 µM in test [1] (Mus musculus, 20 uM, read-out: ATF-4 Xmax) came to 16.7 ± 3.24. In the test on CHOP mRNA [2] (Mus musculus, at 20 uM), this molecule came in with a fold induction at 20 µM of 12.4. Also, the 50% inhibitory concentration (IC50) was 0.6 ± 0.1 µM in the test with CRL-2351 (Homo sapiens, 120 h); 1.5 ± 0.6 µM in the test on CRL-2813 (Homo sapiens, CRL2813, 120 h); 0.8 ± 0.4 µM in the test with KLN (Mus musculus, 120 h).
In the case of `CC(C)(C)c1ccc(O)c(C2(c3cc(C(C)(C)C)ccc3OCCN3CCOCC3)C(=O)N(CCN3CCOCC3)c3ccccc32)c1` (centres unmarked) [HY305], the maximal fold induction at 80 µM in test [1] (setting [4]) was determined as 31.9 ± 9.27. Further, the maximal fold induction at 40 µM in test [1] (Mus musculus, at 40 uM) came to 3.61 ± 0.47. For the same molecule, the fold induction at 40 µM in the test with CHOP mRNA [2] (Mus musculus) came out at 10. Besides, the IC50 with CRL-2351 (Homo sapiens, 120 h) was determined as 3.6 ± 0.7 µM; in the test on CRL-2813 (Homo sapiens, CRL2813, 120 h), 2 µM; in the test with KLN (Mus musculus, 120 h) it was 5 µM.
Consider `CC(C)(C)c1ccc(O)c(C2(c3cc(C(C)(C)C)ccc3O)C(=O)N(CCN3CCOCC3)c3ccccc32)c1` [HY304], for which, in test [1] (Mus musculus, at 40 uM), the maximal fold induction at 40 µM amounted to 4.31 ± 0.1. Moreover, the fold induction at 40 µM with CHOP mRNA [2] (Mus musculus) turned out to be 9.1. In addition, the IC50 in the test with CRL-2351 (Homo sapiens, 120 h) came to 2.2 ± 0.2 µM; in the test on CRL-2813 (Homo sapiens, CRL2813, 120 h), 1.6 ± 0.2 µM; with KLN (Mus musculus, 120 h), 17.5 ± 1.3 µM.
Take `COc1ccc(C(C)C)cc1C1(c2cc(C(C)C)ccc2OC)C(=O)Nc2ccccc21` [HY061]: the maximal fold induction at 80 µM in test [1] (setting [4]) worked out at 2.9 ± 1.21. The fold induction at 40 µM in the test with CHOP mRNA [2] (Mus musculus) worked out at 4.23. In the test with CHOP mRNA [2] (Mus musculus), this molecule registered a fold induction at 80 µM of 12.3. Also, the IC50 in the test with CRL-2351 (Homo sapiens, 120 h) is 3 µM; with CRL-2813 (Homo sapiens, CRL2813, 120 h), 2.8 ± 0.2 µM; in the test with KLN (Mus musculus, 120 h), 11 ± 0.4 µM.
Consider `CN(C)CCN1C(=O)C(c2cc(C(C)(C)C)ccc2CCCN2CCCC2)(c2cc(C(C)(C)C)ccc2OCCN2CCCC2)c2ccccc21` (centres unmarked) [HY198], for which the “ATF-4 Xmax” value in test [1] (2.5 uM) was 11.82 ± 0.11/2.5 uM. Also, in the test with CHOP mRNA [2] (at 20 uM), the “CHOP PCR (μM) KLN” value worked out at 3.76 at. Besides, the IC50 came to 0.2 ± 0.05 µM with CRL-2351, 0.8 ± 0.1 µM in the test on CRL-2813 and 0.3 ± 0.1 µM in the test with KLN.
